Source: patent US7008950B1, “Benzofurans as suppressors of neurodegeneration” (Takeda Chemical Industries, Ltd., priority 1997, dated 2006)

Test system: human neuroblastoma SK—N—SH cells
Test: Cell protective activity against β-amyloid 25-35-induced neurotoxicity (Alamar Blue cell viability)
Format: cell-based
Conditions: test compound 1 μM with β-amyloid 25-35 10 μM; rhIFN-γ-pretreated SK—N—SH cells; viability by Alamar Blue after 3 days; [(A−B)/(C−B)]×100
Source text: Evaluation of cell protective activity against β-amyloid neurotoxicity in human neuroblastoma SK—N—SH cells.
• Human neuroblastoma SK—N—SH cells: obtained from American Type Tissue Culture Collection (ATCC). DMEM/F-12 medium: obtained from Nikken Biological Medicine Laboratory Co. • Ca^++ and Mg^++ free phosphate-buffered saline (PBS(−)): obtained Nikken Biological Medicine Laboratory Co. • N2 supplement™, and EDTA solution: obtained from Gibco BRL Co. • Fetal calf serum, and mixture of penicillin (5000 U/mL) and streptomycin (5 mg/mL): obtained from Bio Whittaker Co. • Recombinant human interferon gamma (rhIFN-γ): obtained from Wako Pure Chemical Co. • Alamar Blue™ reagent: obtained from AccuMed International, Inc. • Culture flasks: manufactured by Falcon Co. Collagen-coated, 96-well multi-plate: manufactured by Iwaki Glass Co. • β-amyloid 25-35: obtained from Bachem AG. • Other reagents: commercially-available special-grade chemicals. b) Test Method (1) Cultivation of SK—N—SH cells
SK—N—SH cells were sub-cultured in DMEM/F12 medium containing 5% FCS, 0.5% N2 supplement™, 1% of mixture of penicillin (5000 U/mL) and streptomycin (5 mg/mL), under 10 t CO2 and 90% air, using CO2 incubator. At sub-confluent condition, cells were harvested from culture flask with PBS(−) containing 2.5 mM EDTA, and plated at a density of 1.0×10^4 cells/100 μl of culture medium/well in collagen-coated 96-well multi-plate. The next day, 80 μl of culture medium was substituted with DMEM/F12 medium (containing neither FCS nor N2 supplement) containing 1.25 ng/mL of rhIFN-γ, and after 24 hr cultivation cells were used for cell toxicity assay mentioned below.
(2) Measurement of cell protective activity of test compounds against β-amyloid 25-35-induced neurotoxicity
After pretreatment of SK—N—SH cells with rhIFN-γ in collagen-coated 96 well multi-plate, cell toxicity assay was started by addition of β-amyloid 25-35 and test compound. Briefly, 80 μl of culture medium was removed, and 40 μl of β-amyloid 25-35 and 40 μl of test compound were added to cultures at the same time. The final concentrations of β-amyloid 25-35 and test compounds were 10 μM and 1 μM, respectively.
The test compound was dissolved at 10 mM in dimethylsulfoxide (DMSO) and diluted in DMEM/F12 medium. β-amyloid 25-35 was dissolved at 5 mM in sterile pure water, and stored at −80° C. Immediately before use, the stock solution β-amyloid 25-35 was diluted in DMEM/F12 medium and sonicated.
(3) Evaluation of cell protective activity of test compound
Cell viability was assessed by the reduction of Alamar Blue™ reagents, 3 days after starting of the cell toxicity assay. Briefly, 20 μl of culture medium was substituted with 20 μl of Alamar Blue™ reagents and incubated 4 hours. Absorbances were determined at wavelengths of 570 nm and 600 nm using a plate reader (MTP-32 Micro-plate Reader, manufactured by Corona Co.). Amount of reduced Alamar Blue reagents was determined by subtracting absorbance600 from absorbance570. The cell protective activity of the test compound was estimated according to the following equation: • Cell protective activity of compound [(A−B)/(C−B)]×100 (%) 20 where; • A: cell viability of the group treated with both the test compound and β-amyloid • B: cell viability of the group treated with β-amyloid only • C: cell viability of the control group Results
Cell viability of the group treated with both the test compound and β-amyloid was compared with that 30 group treated with β-amyloid only using Dunnett's test.
Cell viability of each group was determined using at least 4 culture well.

Which “Cell Protecting Activity (%)” value does the source give for Cc1c(C)c2c(c(C)c1OCc1ccccc1)C(c1ccc(C(C)C)cc1)C(C)(C)O2 (stereo not shown) [Example 1, 5-Benzyloxy-3-(4-isopropylphenyl)-2,2,4,6,7-pentamethyl-2,3-dihydrobenzofuran] here?
The value was 30.7%.

Cc1c(C)c2c(c(C)c1OCc1ccccc1)C(c1ccc(N(C)C)cc1)C(C)(C)O2 (stereo not shown) [Example 2, 5-Benzyloxy-3-[4-(dimethylamino)phenyl]-2,2,4,6,7-pentamethyl-2,3-dihydrobenzofuran] was tested. Which “Cell Protecting Activity (%)” value did it give?
The value was 27.9%.

How did the “Cell Protecting Activity (%)” value turn out when Cc1c(C)c2c(c(C)c1OCc1ccccc1)CC(C)(CN1CCN(c3ccccc3)CC1)O2 (stereo not shown) [Example 3, 5-Benzyloxy-2,4,6,7-tetramethyl-2-(4-phenyl-1-piperazinyl)methyl-2,3-dihydrobenzofuran] was run?
The value was 39.4%.

How did the “Cell Protecting Activity (%)” value turn out when COc1ccc(COc2c(C)c(C)c3c(c2C)C(c2ccc(N4CCOCC4)cc2)C(C)(C)O3)cc1 (stereo not shown) [Example 7, 5-(4-Methoxybenzyloxy)-3-[4-(4-morpholinyl)phenyl]-2,2,4,6,7-pentamethyl-2,3-dihydrobenzofuran] was run?
Its value is 27.3%.

Cc1c(C)c2c(c(C)c1OCC=Cc1ccccc1)C(c1ccc(C(C)C)cc1)C(C)(C)O2 (stereo not shown) [Example 12, 3-(4-Isopropylphenyl)-2,2,4,6,7-pentamethyl-5-(3-phenyl-2-propen-1-yloxy)-2,3-dihydrobenzofuran] was tested. Which “Cell Protecting Activity (%)” value did it give?
Its value is 44.8%.

Cc1c(C)c2c(c(C)c1OCCC(c1ccccc1)c1ccccc1)C(c1ccc(C(C)C)cc1)C(C)(C)O2 (stereo not shown) [Example 14, 5-(3,3-Diphenylpropyloxy)-3-(4-isopropylphenyl)-2,2,4,6,7-pentamethyl-2,3-dihydrobenzofuran] was tested. Which “Cell Protecting Activity (%)” value did it give?
The value was 44.2%.

With Cc1c(C)c2c(c(C)c1OCCc1ccccc1)C(c1ccc(C(C)C)cc1)C(C)(C)O2 (stereo not shown) [Example 25, 3-(4-Isopropylphenyl)-2,2,4,6,7-pentamethyl-5-(2-phenylethyl)oxy-2,3-dihydrobenzofuran] as the compound, how does the “Cell Protecting Activity (%)” value read?
The value was 47.0%.
